In patent publication US7579432B2, “Cyclic peptides as G-protein-coupled receptor antagonists” (Promics Pty Limited, priority 2001, dated 2009):
Bridge positions count the residues as written; N and C are the ends. Square brackets hold non-standard residues; d marks the D form. Peptide text beside a SMILES is read from it. * marks the point of attachment. Hydrocinnamoyl = O=C(CCc1ccccc1)*; dCha = N[C@H](CC1CCCCC1)C(=O)O; Orn = NCCC[C@H](N)C(=O)O

Tested on: neutropenia caused by i.v. LPS
Assay: LPS-induced neutropenia (endotoxaemia model)
Type: in vivo, rat
Details: topical in 50% DMSO/50% H2O, 60 min before LPS 1 mg/kg i.v.
Protocol: The in vivo pharmacological properties of cyclic antagonists were examined following topical dermal administration. A model of endotoxaemia was used, in which 1 mg/kg Escherichia coli […] (LPS; serotype 55:B5, Sigma, USA, stored at 100 mg ml^−1 in dH2O, 4° C.), was injected i.v into a rat, resulting in acute changes in circulating PMN levels and blood pressure. These parameters were measured in the presence and absence of C5aR antagonists (1 mg/kg i.v or 50 mg/kg/rat topically). […] Female Wistar rats weighing between 200-250 g were used for in vivo testing of all C5a receptor antagonists. Rats were anaesthetized using the procedure described above, and transferred on to a heating pad to ensure that body temperature was maintained throughout the experiment. A catheter was inserted in the femoral vein, secured with a suture and flushed with 100 μL of heparinised saline. […] All agents infused i.v were injected over a 2 min period, and were followed with a subsequent injection of 100 μL of saline to ensure complete delivery of the drug. Whole blood samples (0.1 mL) were collected from the tail vein at the time of drug and LPS or C5a administration. Samples were collected at −15, 0, 5, 10, 15, 30, 60, 90, 120 and 150 min relative to the injection of LPS (zero time), and placed in tubes containing heparin (500 Units/mL). To isolate PMNs, 100 μL of blood was layered on to 200 μL of Histopaque 1077 (Sigma U.S.A.) solution and centrifuged at 400×g for 30 min min at room temperature (25° C.). The supernatant layer of platelet-rich plasma, the monocyte and lymphocyte interface and the separation layer of Histopaque were removed and discarded, leaving the PMN and red blood-cell rich layer. […] The number of PMNs was counted on a haemocytometer. The number of cells at each time point was calculated as a percentage of the total number of cells at time zero, prior to complement challenge or LPS. […] Circulating PMN levels were monitored for 150 min following LPS injection, and the percentage change in PMN levels from zero time, when LPS was injected, was calculated.

For `N=C(N)NCCC[C@@H]1NC(=O)[C@H](Cc2c[nH]c3ccccc23)NC(=O)[C@@H](CC2CCCCC2)NC(=O)[C@@H]2CCCN2C(=O)[C@@H](NC(=O)CCc2ccccc2)CCCNC1=O` [Compound 17, HC[OP-dCha-WR]] (Hydrocinnamoyl-[Orn]P[dCha]WR; lactam 1-C), the “neutropenia response to i.v. LPS” value was “inhibited the neutropenia response”.
In the case of `CC(=O)N[C@@H](Cc1ccccc1)C(=O)N[C@H]1CCCNC(=O)[C@H](CCCNC(N)=O)NC(=O)[C@H](Cc2c[nH]c3ccccc23)NC(=O)[C@@H](CC2CCCCC2)NC(=O)[C@@H]2CCCN2C1=O` [Compound 45, AcF[OPdChaW-Cit]], the “neutropenia response to i.v. LPS” value is reported as “inhibited the neutropenia response”.
